# From patent US20090247519A1, “AMINO-ETHYL-AMINO-ARYL (AEAA) COMPOUNDS AND THEIR USE” (priority 2006, published 2009)
# Molecular target: T1, Human full length PKD2 (Homo sapiens, UniProt Q9BZL6)
# T1 construct: Human full length PKD2 at ˜100 μg/mL was purchased from Upstate Ltd; purchased Upstate Ltd 14-506
# T1 sequence (Q9BZL6 1-878): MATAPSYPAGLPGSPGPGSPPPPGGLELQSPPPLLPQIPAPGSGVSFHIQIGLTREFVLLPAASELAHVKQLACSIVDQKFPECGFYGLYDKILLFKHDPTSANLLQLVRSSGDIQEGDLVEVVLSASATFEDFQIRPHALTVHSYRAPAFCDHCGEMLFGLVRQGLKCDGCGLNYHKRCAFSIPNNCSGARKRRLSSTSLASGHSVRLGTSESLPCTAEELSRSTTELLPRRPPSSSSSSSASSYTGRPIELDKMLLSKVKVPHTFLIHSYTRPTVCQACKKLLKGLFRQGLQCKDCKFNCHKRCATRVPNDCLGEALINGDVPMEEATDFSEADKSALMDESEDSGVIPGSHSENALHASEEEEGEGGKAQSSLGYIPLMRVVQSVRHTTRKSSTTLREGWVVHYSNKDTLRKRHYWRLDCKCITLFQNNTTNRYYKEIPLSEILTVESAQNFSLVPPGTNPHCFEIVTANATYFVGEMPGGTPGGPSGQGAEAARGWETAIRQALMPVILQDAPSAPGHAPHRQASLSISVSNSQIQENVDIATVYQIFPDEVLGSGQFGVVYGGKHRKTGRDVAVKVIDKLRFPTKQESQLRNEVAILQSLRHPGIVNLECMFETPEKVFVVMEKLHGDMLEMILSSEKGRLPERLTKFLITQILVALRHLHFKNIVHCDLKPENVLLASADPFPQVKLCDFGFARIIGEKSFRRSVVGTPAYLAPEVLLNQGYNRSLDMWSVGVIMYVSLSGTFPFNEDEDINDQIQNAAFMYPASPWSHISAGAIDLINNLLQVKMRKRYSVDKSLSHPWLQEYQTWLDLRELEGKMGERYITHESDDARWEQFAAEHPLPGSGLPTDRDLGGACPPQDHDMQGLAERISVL
# Test: PKD2 (Human Full Length) Enzyme Activity Assay (IMAP fluorescence polarisation)
# Type: biochemical
# Settings: 10 point dose-response
# Experimental: PKD2 (Human Full Length) Enzyme Activity Assay
# Kinase Assay Reaction Buffer: This consisted of 0.22 μM filtered 25 mM HEPES and 10 mM MgCl2 pH 7.5.
# Kinase: Human full length PKD2 at ˜100 μg/mL was purchased from Upstate Ltd (Product code 14-506), and obtained from aliquots stored at −70° C. It was prepared with a final concentration of […] by diluting 1:300 in Reaction Buffer (30 μL per 9 mL-5 mL per plate with an additional 4 mL dead volume) and vortexing prior to use. It is necessary to check this concentration regularly in case of enzyme degradation. […]
# 5 μL Kinase/Substrate in Reaction Buffer was added to ‘test’ and all ‘control’ wells of a Corning black low binding 384 well (90 μL volume) microplate to give 0.1 μg/mL and 2 μM reaction concentration respectively. […] The fluorescence polarisation of the peptide substrate was measured using an analyst (Molecular devices) microplate reader with a single read at Ex485 Em535 (Analyst settings: Z Height 5 mm, G Factor 0.95, Reads/well 1, Integration 100000 μs, Gain Sensitivity 2).
# Percentage inhibition was calculated based on activity of the test sample minus the average values in the blank wells relative to the average values measured in control wells minus the average values in the blank wells.
# IC50 values were calculated from 10 point dose sigmoid ‘dose-response’ curves using XIfit software (IDBS inc, USA). […]
smiles,measurement,value
"CC[C@@H](N)CN(C)c1ccnc(-c2cc(Cl)ccc2O)n1 [XX-276, 2-{4-[((R)-2-Amino-butyl)-methyl-amino]-pyrimidin-2-yl}-4-chloro-phenol]",IC50,4.1 nM
